Results: article PMC12029898, “Cellular Metabolomics Reveals Differences in the Scope of Liver Protection Between Ammonium-Based Glycyrrhizinate and Magnesium Isoglycyrrhizinate” (Metabolites, 2025)
Where two headings read alike, the source gives them in different places.

Columns and labels:
LO2 cells = assay: Hepatocyte protection rate in APAP-induced LO2 cells (MTT); type: cell-based, human; conditions: for liver protection rate: 16 mM APAP; for hepatocyte protection (therapeutic effect): 16 mM APAP, 200, 400 and 600 μM
Method: Assessment of hepatocyte-protective effects: Cells in the logarithmic growth phase were seeded onto a 96-well plate at a density of 4000 cells per well, followed by incubation at 37 °C in an atmosphere containing 5% CO2. After 24 h of incubation, cells were treated with 16 mM APAP, followed by the addition of MONO, DIAM, and MAGN at three escalating concentrations (200, 400, and 600 μM for each compound). The cell survival rate was quantitatively evaluated using MTT method. The protective efficacy of the compounds was then calculated employing the formula outlined below.(1) Hepatocytes protection rate=AGlycyrrhizinate−AAPAP/Anormal−AAPAP×1

[1] = tested on: glutathione synthetase (GS); assay: ELISA of protein expression in LO2 cells: GS; type: cell-based, human; conditions: 16 mM APAP, 600 μM, 48 h
Method: (§1) The expression levels of glutamylcysteine synthetase (GCL), glutathione synthetase (GS), and 11β-hydroxysteroid dehydrogenase type 1 (11β-HSD1) in cells were quantified using commercially available enzyme-linked immunosorbent assay (ELISA) kits (Shanghai Aimeng Youning Biotechnology Co., Ltd., Shanghai, China). Cells in the logarithmic growth phase were seeded into 6-well plates at a density of 3 × 10^4 cells per well, pre-incubated for 24 h, and subsequently exposed to 16 mM APAP with concurrent administration of MONO, DIAM, and MAGN at a final concentration of 600 μM for 48 h. Following three PBS washes, cells were harvested using cell scrapers. Total protein content was determined by the Bradford assay, and samples were normalized to equivalent protein concentrations prior to quantitative analysis of target proteins according to the manufacturer’s protocols.

[2] = tested on: glutamylcysteine synthetase (GCL); assay: ELISA of protein expression in LO2 cells: GCL; type: cell-based, human; conditions: 16 mM APAP, 600 μM, 48 h
Method: as §1

[3] = Pharmacokinetics after oral gavage in rats (plasma, HPLC); type: in vivo, Sprague Dawley rats; conditions: rat
Source text: Nine male Sprague Dawley rats, each weighing approximately 250 g ± 25 g, were meticulously selected as the experimental subjects (sourced from Beijing SPF Biotechnology Co., Ltd., (Beijing, China) SPF grade, licensed under SCXK (Jing) 2019-0010). The experimental protocol was approved by the Institutional Animal Care and Use Committee of Hebei Medical University and conformed to the Guide for Care and Use of Laboratory Animals (approval NO. 2023040). Prior to and throughout the experimental period, the rats were provided with unrestricted access to standard rodent chow and water. The housing facilities for these animals adhered strictly to the standards outlined by the International Association for the Evaluation and Certification of Laboratory Animal Care, ensuring optimal conditions for the animals’ wellbeing. The experimental feeding environment was maintained at a temperature of 22–24 °C, with a relative humidity of 50 ± 5%, and a 12-h light/dark cycle to mimic natural diurnal rhythms. The rats were randomly allocated into three distinct groups, with an equal distribution of three rats per group. MONO, DIAM, and MAGN were administered orally at a dose of 20 mg/kg. The amount administered was calculated as the contents of glycyrrhizinate or magnesium isoglycyrrhizinate. Each compound was dissolved in 0.5% carboxymethylcellulose sodium (CMC-Na) solution and delivered immediately to rats via gastric gavage. Blood samples of 0.2 mL were obtained at various time points post-administration (0.5, 1, 2, 4, 8, 12, 24, and 48 h) and centrifuged at 1500× g for 10 min at 4 °C, allowing for the separation of plasma, which was collected and stored at −20 °C for subsequent analysis.
Fifty microliters (50 μL) of plasma was obtained and spiked with 10 μL of dipyridamole solution as an internal standard. Subsequently, 100 μL of acetonitrile was added to precipitate the proteins, followed by vortex mixing. The mixture was centrifuged at 6000× g for 10 min at 4 °C. The resulting precipitate was discarded, and the supernatant was evaporated to dryness under a nitrogen stream at 60 °C. The residual precipitate was redissolved in 200 μL of mobile phase, vortexed for 5 min, and sonicated for 30 s. Following this, the solution was centrifuged again at 6000× g for 10 min at 4 °C. Then, 10 μL of the supernatant was injected and the chromatogram was recorded for analysis.
HPLC was employed using the Agilent 1200 series system (Agilent Technologies, Wilmington, DE, USA) with Agilent Chemstation LC B.04.03 Software. The separation was on a Venusil MP C18(2) chromatographic column (150 × 4.6 mm, 5 μm, Agela Technologies, Tianjin, China) based on the United States Pharmacopeia with adjustments performed. Isocratic elution with a mixture of 40 volumes of acetonitrile and 60 volumes of water (containing 0.5% acetic acid) was used. The flow rate and temperature were 1.0 mL/min and 40 °C, respectively. A volume of 10 μL of the sample was injected under 254 nm for analyses and with three repetitions for each test (n = 3). All the pharmacokinetic data were calculated by Drug and Statistics (DAS) 2.0 software (Mathematical Pharmacology Professional Committee of China, Shanghai, China) and presented as mean ± SD. The main parameters such as the area under the curve (AUC), the maximum plasma concentration (Cmax), the time to Cmax (Tmax), and elimination half-life (t1/2) were tabulated.

[4] = tested on: 11β-hydroxysteroid dehydrogenase type 1 (11β-HSD1); assay: ELISA of protein expression in LO2 cells: 11β-HSD1; type: cell-based, human; conditions: 16 mM APAP, 600 μM, 48 h
Method: as §1

| Compound | liver protection rate (LO2 cells; 400 μM) | liver protection rate (LO2 cells; 600 μM) | hepatocyte protection (therapeutic effect) (LO2 cells) | GS expression [1] | intracellular GCL levels [2] | half-life ([3]; male, Sprague Dawley, po, 20 mg/kg, n = 3) | AUC(0-t) ([3]; male, Sprague Dawley, po, 20 mg/kg, n = 3, read-out: AUC0-t) | Cmax ([3]; male, Sprague Dawley, po, 20 mg/kg, n = 3, read-out: Cmax) | Tmax ([3]; male, Sprague Dawley, po, 20 mg/kg, n = 3, read-out: Tmax) | Tmax ([3]; oral 20 mg/kg, n = 3) | 11β-HSD1 expression [4] | AUC(0-t) ([3]; oral 20 mg/kg, n = 3) | Cmax ([3]; oral 20 mg/kg, n = 3) | t1/2 ([3]; oral 20 mg/kg, n = 3) |
| --- | --- | --- | --- | --- | --- | --- | --- | --- | --- | --- | --- | --- | --- | --- |
| CC1(C)[C@@H](O[C@H]2O[C@H](C(=O)O)[C@@H](O)[C@H](O)[C@H]2O[C@@H]2O[C@H](C(=O)O)[C@@H](O)[C@H](O)[C@H]2O)CC[C@]2(C)[C@H]3C(=O)C=C4[C@H]5C[C@@](C)(C(=O)O)CC[C@]5(C)CC[C@@]4(C)[C@]3(C)CC[C@@H]12 [MAGN, magnesium isoglycyrrhizinate] | comparable liver protection rates, which were statistically indistinguishable and surpassed that of MONO | superior protective rate compared to DIAM | concentration-dependent therapeutic effects | remained comparable to DIAM-treated control | significantly elevated | 23.7 ± 2.44 h | 552 ± 120 µg·h/mL | 23200 ± 4180 ng/mL | 9.66 h | 9.33 ± 2.31 h | – | – | – | – |
| CC1(C)[C@@H](O[C@H]2O[C@H](C(=O)O)[C@@H](O)[C@H](O)[C@H]2O[C@@H]2O[C@H](C(=O)O)[C@@H](O)[C@H](O)[C@H]2O)CC[C@]2(C)[C@H]3C(=O)C=C4[C@@H]5C[C@@](C)(C(=O)O)CC[C@]5(C)CC[C@@]4(C)[C@]3(C)CC[C@@H]12 [DIAM, diammonium glycyrrhizinate] | comparable liver protection rates, which were statistically indistinguishable and surpassed that of MONO | – | concentration-dependent therapeutic effects | – | – | – | – | – | – | 6 ± 0 h | most pronounced upregulation | 358.04 ± 56.36 µg·h/mL | 18860 ± 2030 ng/mL | 11.57 ± 1.29 h |
